The results in this text go back to EP0234113A1, “2,3-Dihydro-1H-phenalene-2-amino compounds as anti-psychotic drugs” (THE UPJOHN COMPANY, priority 1985, dated 1987).

Usually ED50 stands for the midpoint of the dose-response relation.

Where a name gives a salt, the structure may show the parent alone. Where only a bound is given, the exact number is not on record here.

The subject of data set [1] is body temperature. Kind of data set: Hypothermia Test (effect on body temperature). The class given is in vivo, CF-1 male mice. As to conditions: for ED50: Mus musculus, ip, 0.75 h, read-out: Hypothermia ED50; for active in either the hypothermic or the apomorphine antogonism test: either test: hypothermic or apomorphine antagonism. As to the method:
(§1) The Effect on Body Temperature (Hypothermia) Test and the Antagonism of Apomorphone-Induced Case Climbing (ACC), (Apomorphine Gnawing Test) are described on page 1398 of the publication, Journal of Medicinal Chemistry, Vol. 22, No. 11, pp. 1390-1398, in an article entitled "6-Aryl-4H-s-triazolo[4,3-a][1,4]benzodiazepines....Action" by J. B. Hester, Jr., et al.
For the tests here, the Hypothermia Test procedure was run as follows:
A group of four CF-1 male mice (18-22 g each) was injected intraperitoneally with the test compound prepared in 0.25 percent w/v methylcellulose in water solution. After 45 min, abdominal temperature of each mouse was measured using a thermister probe. A control group of four mice was treated with vehicle only and the temperature of the control group was taken in a similar manner. A compound was considered to have a significant effect on body temperature if the mean temperature in the test compound treated group deviated more than 3.5°C from the mean temperature of the parallel control group. Stimulants tend to elevate temperatures; depressants tend to lower body temperature.

In data set [2] the test system is Apomorphone-Induced Case Climbing. Kind of data set: Apomorphine antagonism (Apomorphine gnawing test; apomorphine-induced cage climbing). The class given is in vivo, Mouse. To be noted: Mus musculus, read-out: Apomor. Antag. ED50.
Description: as §1
(§2) Table 3. […] A. Behavioral effects in the rat. B. Behavioral effects in the monkey. C. Doses required to antagonize the indicated behavioral effects of amphetamine. D. Doses required to antagonize the indicated behavioral effects of apomorphine.

The test system of a further data set is Dopamine (3H-spiperone). Kind of data set: Receptor Binding Assay with 3H-spiperone (Dopamine Binding Assay), rat brain homogenate. As to conditions: single concentration of 1 uM, 3H-spiperone, rat brain homogenate; 30 min. On the procedure:
The Receptor Binding Assay test for antipsychotic acitvity, was conducted as follows:
A rat brain homogenate was prepared (1) by homogenizing a whole rat brain minus the cerebellum in 10 ml of 0.05M THAM-HC1, pH 7.4, using a Polytron at a setting of 7 for 30 sec. and centrifuging at 15,000xg for 10 min. The supernatant was discarded, the pellet resuspended in 10 ml of buffer using the Polytron for 10 sec., and the centrifugation repeated. The pellet was resuspended and diluted to 100 times the original tissue weight with buffer. Then 100 ml of the homogenate was diluted to 400 ml with buffer.
The test drug was weighed out in a scintillation vial in a 1-5 mg ammount. They were dissolved by adding 0.5 ml of N-N-dimethylformamide of (DMF) and then 0.05 ml of 1M acetic acid, and vortexed to solubilize the drug. Then 10 ml of deionized and filtered water was added to the required volume. All compounds were tested at a single concentration of 1 uM.
Samples were prepared for incubation using an ^3H-spiperone (antipsychotic).
Incubation was conducted at 30°C for 30 min. on a shaking water bath. Every 30 sec., 24 tubes were filled with 1 ml of homogenate and put into the bath (this is done every 3 min. until all tubes are in the bath). Upon completion of the incubation procedure, the samples are filtered and rinsed.
The punched filters are dropped into vials, which are in turn filled with ACS liquid scintillation fluid and capped and counted in a liquid scintillation counter. Counting data is recorded and analyzed.
Results are expressed as percent decrease from control.

In data set [3] the test system is dopamine neurons. Kind of data set: Reversal of amphetamine depression of dopamine neuron firing rates. In kind it is in vivo, rats. As to conditions: for Emax / ED50: Rattus norvegicus, Neuron, iv; for Emax: read-out: MAXIMUM EFFECT (per cent reversal). As to the method:
Table 2. Dopamine neuron firing rates were recorded according to published procedures and drugs were injected intravenously in chloral hydrate anesthetized rats. A. Ability of drugs to reverse the depression in firing rates of dopamine neurons by 1 to 2 mg/kg amphetamine. The maximum effect is the maximum amount of the amphetamine effect that was reversed, even when doses were increased beyond dose causing maximum effect. […] B. Depression of dopamine neurons by full agonist apomorphine and partial agonists TDHL, (-)PPP and U-64,273A. Maximum effect is maximum depression that could be realized even after increasing doses beyong the dose causing maximum effect. For both A and B, the ED50 is the dose causing 50% of the respective antagonistic (A) or agonist (B) effect.

For data set [4], the system named is dopamine neurons. As to the kind of experiment: Depression of dopamine neuron firing rates by the drug alone. To be noted: Rattus norvegicus, iv; for Emax: read-out: MAXIMUM EFFECT (per cent decrease). The class given is in vivo, rats. As to the method: Table 2. Dopamine neuron firing rates were recorded according to published procedures and drugs were injected intravenously in chloral hydrate anesthetized rats. A. Ability of drugs to reverse the depression in firing rates of dopamine neurons by 1 to 2 mg/kg amphetamine. The maximum effect is the maximum amount of the amphetamine effect that was reversed, even when doses were increased beyond dose causing maximum effect. An effect greater than 100% indicates excitation of the neuron beyond its' control rate whereas an effect less than 100% indicates partial agonist effects. B. Depression of dopamine neurons by full agonist apomorphine and partial agonists TDHL, (-)PPP and U-64,273A. Maximum effect is maximum depression that could be realized even after increasing doses beyong the dose causing maximum effect. For both A and B, the ED50 is the dose causing 50% of the respective antagonistic (A) or agonist (B) effect.

A further data set deals with Locomotor activity. Kind of data set: Antagonism of apomorphine locomotor activity in reserpinized mouse. The class given is in vivo.
Description: as §2

The subject of data set [5] is dopamine metabolites HVA, DOPAC, and 3MT. Kind of data set: Dopamine metabolites in rat brain. The class given is in vivo. To be noted: percentage of control; 3 mg/kg of chlorpromazine, 30 mg/kg clozapine or U-64,273A; Sprague-Dawley rat.
The subject of a further data set is Catalepsy. Kind of data set: Catalepsy. As to conditions: rat.
Description: as §2

A further data set relates to plasma prolactin. As to the kind of experiment: Plasma prolactin. As to conditions: 3 mg/kg of chlorpromazine, 30 mg/kg clozapine or U-64,273A; Sprague-Dawley rat. The class given is in vivo.
Data set [6] has as its system body temperature. As to the kind of experiment: Antagonism of drug-induced hypothermia. Further details: species or system mice. To be noted: mouse, in vivo.

Consider `CCCN(CCC)C1Cc2cccc3c(SC)ccc(c23)C1` (stereo not shown) [Example 40, 2,3-Dihydro-N,N-di-n-propyl-6-methylthio-lH-phenalen-2-amine], for which the values for the ED50 (in the data set with body temperature [1]; in data set [2]) were 25 mg/kg and 12.5 mg/kg, respectively.
Consider `Cc1ccc2c3c(cccc13)CC(N)C2` (stereo not shown) [Example 38, part C, 6-methyl-2,3-dihydro-lH-phenalen-2-amine], for which the ED50 was over 50 mg/kg with body temperature [1] and 35 mg/kg in data set [2]. In the data set with Dopamine (3H-spiperone), the “Dopamine Binding Assay % Decrease from Control” value is given as -30.62%.
Regarding `CN(C)C1Cc2cccc3cccc(c23)C1` [U-65,556, 2,3-dihydro-N,N-dimethyl-lH-phenalen-2-amine], in the data set with dopamine neurons [3] (intravenous, anesthetized rats), the “reversal of amphetamine's depression of DA neuronal firing (in words)” value is “reversed amphetamine's depressions of DA neurons without causing firing rates to increase over control”.
Take `CCCN1CCC[C@@H](c2cccc(O)c2)C1` [(-)PPP]: in the data set with dopamine neurons [4] (Neuron, dose causing 50% of the agonist effect, intravenously, anesthetized rats, read-out: ED50), the ED50 was 0.137 mg/kg. In addition, in the data set with dopamine neurons [4] (B. depress DA neuron firing rates, intravenously, chloral hydrate anesthetized rats), the Emax worked out at 68%.
`CN1CCN(C2=Nc3cc(Cl)ccc3Nc3ccccc32)CC1` [Clozapine, clozapine]: the “Locomotor activity, reserpinized mouse, 3 mg/kg (antag. of apomorphine)” value with Locomotor activity stood at 52%. Besides, in [5], the 3MT was found to be 104%, the DOPAC was found to be 110% and the HVA turned out to be 118%. In addition, the “Catalepsy, active dose” value with Catalepsy (i.a. = inactive) is recorded as “i.a”. Further, the Emax with dopamine neurons [3] (A. antagonize amphetamine depressions, intravenously, chloral hydrate anesthetized rats, 1 to 2 mg/kg amphetamine, >100% = excitation beyond control rate) stood at 105%. Besides, the ED50 with dopamine neurons [3] (dose causing 50% of the antagonistic effect, intravenously, anesthetized rats, read-out: ED50) turned out to be 2 mg/kg. The “Plasma Prolactin” value in the data set on plasma prolactin is 42%.
As to `O=C(CCCN1CCC(O)(c2ccc(Cl)cc2)CC1)c1ccc(F)cc1` [Haloperidol, haloperidol], in the data set on body temperature [6], the “block of hypothermia induced by 2-(N,N-di-n-propylamino)-2,3-dihydro-lH-phenalen-5-ol” value is given as “significantly blocks”. Also, the “Catalepsy, active dose” value in the data set with Catalepsy (in vivo) was found to be 1 mg/kg. Moreover, in the data set on dopamine neurons [3], the ED50 was determined as 0.008 mg/kg and the Emax was 164%. For the same molecule, in the data set with dopamine neurons [3] (after reversal of amphetamine depression of DA neuronal firing), the “increase of firing rates to a level greater than controls” value is given as 64%.
Take `CNC1Cc2cccc3c(C)ccc(c23)C1` (stereo not shown) [Example 39, part B, 2,3-dihydro-N,6-dimethyl-1H-phenalen-2-amine]: the ED50 in the data set on body temperature [1] worked out at 13 mg/kg; in data set [2] it was 35 mg/kg. In the data set with Dopamine (3H-spiperone), the “Dopamine Binding Assay % Decrease from Control” value was -55.37%.
For `CCCN(CCC)C1(C)Cc2cccc3cc(O)cc(c23)C1` (stereo not shown) [Example 41, 5-Hydroxy-2-methyl-2,3-dihydro-N,N-di-n-propyl-lH-phenalene-2-amine] the same measures were over 50 mg/kg, over 50 mg/kg and -55.18%.
For `CCCN(CCC)C1Cc2cccc3c(C)ccc(c23)C1` (stereo not shown) [Example 38, title compound, 2,3-Dihydro-6-methyl-N,N-dipropyl-lH-phenalene-2-amine] the same measures were 18 mg/kg, over 50 mg/kg and -82.08%.
Regarding `CCCN(CCC)C1Cc2cccc3cc(OC(=O)OCC)cc(c23)C1` (stereo not shown) [(47), [2-(N,N-di-n-propylamino)-2,3-dihydro-lH-phenalen-5-yl]-ethyl carbonate (ester)], in the data set with body temperature [1], the “active in either the hypothermic or the apomorphine antogonism test” value was “active”.
In the case of `CN(C)C1Cc2cccc3cccc(c23)C1` [(7), N,N-dimethyl-2,3-dihydro-lH-phenalen-2-amine hydrochloride], the “active in either the hypothermic or the apomorphine antogonism test” value in the data set with body temperature [1] was “active”.
The same measure, in the same setting: the same measure for `CNC1Cc2cccc3c(OCc4ccccc4)ccc(c23)C1` (stereo not shown) [(21), [2-(N-methylamino)-2,3-dihydro-lH-phenalen-6-yl]benzyl ether, p-toluene sulfonate salt]: “active”.
On the same count and under the same terms, the value for “N-methyl-6-(2-methyl-l,3-dioxan-2-yl)-2,3-dihydro-lH-phena- len-2-amine [(5)]” was “active”; that for `CCCN(CCC)C1Cc2cccc3cc(OC(=O)C(C)(C)C)cc(c23)C1` (stereo not shown) [(44), 2-(N,N-di-n-propylamino)-2,3-dihydro-lH-phenalen-5-ol, 2,2-dimethylpropyl ester hydrochloride] was “active”.
Regarding `CCCCCCC(=O)Oc1cc2c3c(cccc3c1)CC(N(CCC)CCC)C2` (stereo not shown) [(46), [2-(N,N-di-n-propylamino)-2,3-dihydro-1H-phenalen-5-yl]heptanoate ester hydrochloride], the “active in either the hypothermic or the apomorphine antogonism test” value in the data set on body temperature [1] is recorded as “active”.
On the same count and under the same terms, the same measure for `CCCN(CCC)C1Cc2cccc3cc(OCc4ccccc4)cc(c23)C1` (stereo not shown) [(18), [2-(N,N-di-n-propylamino)-2,3-dihydro-lH-phenalen-5-yl]-a-benzyl ether]: “active”; for “6-chloro-N,N-dimethyl-2,3-dihydro-lH-phenalen-2-amine hydrochloride [(52)]”: “active”.
On the same count and under the same terms, the same measure for `COc1ccc2cccc3c2c1CC(N(C)C)C3` (stereo not shown) [(35), N,N-dimethyl-4-methoxy-2 ,3-dihydro-lH-phenalen-2-ylamine hydrochloride]: “active”.
Consider `CCN(CC)C(=O)N[C@H]1C[C@@H]2c3cccc4[nH]cc(c34)C[C@H]2N(C)C1` [TDHL, trans-dihydrolisuride], for which, in the data set on dopamine neurons [3], the 50% effective dose (ED50) came to 0.132 mg/kg and the Emax turned out to be 57%. In addition, in the data set with dopamine neurons [4] (Neuron), the ED50 stood at 0.021 mg/kg and the Emax worked out at 53%.
Regarding `COC(=O)[C@@H]1[C@H]2C[C@H]3c4[nH]c5ccccc5c4CCN3C[C@@H]2CC[C@@H]1O` [yohimbine], in the data set with body temperature [6], the “block of hypothermia induced by 2-(N,N-di-n-propylamino)-2,3-dihydro-lH-phenalen-5-ol” value was “did not alter” and the “block of hypothermia induced by clonidine” value is recorded as “did block”.
On to “6-chloro-N,N-di-n-propyl-2,3-dihydro-lH-phenalen-2-ylamine hydrochloride [(51)]”, for which the “active in either the hypothermic or the apomorphine antogonism test” value in the data set with body temperature [1] is recorded as “active”.
Consider `Brc1ccc2c3c(cccc13)CC(N1CCC1)C2` (stereo not shown) [(12), 1-[6-bromo-2,3-dihydro-1H-phenalen-2-yl]azetidine], for which the “active in either the hypothermic or the apomorphine antogonism test” value in the data set with body temperature [1] is recorded as “active”.
As to `Cc1ccc2c3c(cccc13)CC(N(C)C)C2` (stereo not shown) [Example 39, part C, 2,3-dihydro-N,N,6-trimethyl-lH-phenalen-2-amine], the results for the ED50 (with body temperature [1]; in data set [2]) were 5.3 mg/kg and 21 mg/kg, respectively.
